Measured values reported in PMC6796659, “Topoisomerase IB poisons induce histone H2A phosphorylation as a response to DNA damage in Leishmania infantum” (International Journal for Parasitology: Drugs and Drug …, 2019).

Key:
[1] = test system: L. infantum promastigotes; assay: Cell cycle analysis by flow cytometry (propidium iodide); assay type: cell-based, Leishmania infantum; settings: 1 μM single dose, 0, 8, 24, 48 h
Method: One million promastigotes untreated or treated with 1 μM of different indenoisoquinolines were harvested by centrifugation after 0, 8, 24 and 48 h exposure. Promastigotes were washed twice with PBS and fixed by 1 h incubation with 70% methanol at 4 °C. After incubation, cells were centrifuged, washed again with PBS and resuspended in 0.5 mL of citrate buffer (45 mM MgCl2, 20 mM MOPS, 30 mM sodium citrate, 0.1% Triton X-100, pH = 7). Finally, samples with RNAase (50 μg/mL) and propidium iodide ([…]) were incubated at 37 °C during 30 min and analyzed at 589 nm by flow cytometry (Cyan ADP Dako).

[2] = test system: Leishmania topoisomerase IB (LTopIB); assay: Relaxation of supercoiled pSK DNA by recombinant LTopIB; assay type: biochemical; settings: Table 1
Method: (§1) Expression and purification of LTopIB and hTopIB were carried out according to a previously standardized protocol ([Villa et al., 2003]). The effect of indenoisoquinolines (compounds 1 to 20) on recombinant LTopIB and hTopIB was determined by measuring the relaxation of negatively supercoiled pBluescript-SK DNA plasmid (pSK). Briefly, in a total volume of 20 μL, 100 U of recombinant TopIB were incubated with 0.5 μg of pSK DNA in 10 mM Tris-HCl buffer (pH 7.5), 5 mM MgCl2, 5 mM dithiothreitol (DTT), 0.1 mM EDTA, […] bovine serum albumin, and 150 mM KCl. Different concentrations of indenoisoquinolines were also added. Following a 4-min incubation period at 25 °C, reactions were stopped with 1% (w/v) SDS, and incubated for one extra hour at 37 °C in the presence of 1 mg/mL proteinase K. Subsequently, samples were extracted with 1 vol phenol-chloroform mixture and were loaded on a 1% agarose gel containing 0.1 μg/mL ethidium bromide. The gel was run for 16 h at 4 V/cm, and the images were acquired using a G-Box system (Syngene, United Kingdom).

human Top IB (hTopIB) = target: T1, human Top IB (hTopIB) (Homo sapiens, UniProt P11387); assay: Relaxation of supercoiled pSK DNA by recombinant hTopIB; assay type: biochemical; settings: Table 1
T1 construct: made in house
T1 sequence (P11387 1-765): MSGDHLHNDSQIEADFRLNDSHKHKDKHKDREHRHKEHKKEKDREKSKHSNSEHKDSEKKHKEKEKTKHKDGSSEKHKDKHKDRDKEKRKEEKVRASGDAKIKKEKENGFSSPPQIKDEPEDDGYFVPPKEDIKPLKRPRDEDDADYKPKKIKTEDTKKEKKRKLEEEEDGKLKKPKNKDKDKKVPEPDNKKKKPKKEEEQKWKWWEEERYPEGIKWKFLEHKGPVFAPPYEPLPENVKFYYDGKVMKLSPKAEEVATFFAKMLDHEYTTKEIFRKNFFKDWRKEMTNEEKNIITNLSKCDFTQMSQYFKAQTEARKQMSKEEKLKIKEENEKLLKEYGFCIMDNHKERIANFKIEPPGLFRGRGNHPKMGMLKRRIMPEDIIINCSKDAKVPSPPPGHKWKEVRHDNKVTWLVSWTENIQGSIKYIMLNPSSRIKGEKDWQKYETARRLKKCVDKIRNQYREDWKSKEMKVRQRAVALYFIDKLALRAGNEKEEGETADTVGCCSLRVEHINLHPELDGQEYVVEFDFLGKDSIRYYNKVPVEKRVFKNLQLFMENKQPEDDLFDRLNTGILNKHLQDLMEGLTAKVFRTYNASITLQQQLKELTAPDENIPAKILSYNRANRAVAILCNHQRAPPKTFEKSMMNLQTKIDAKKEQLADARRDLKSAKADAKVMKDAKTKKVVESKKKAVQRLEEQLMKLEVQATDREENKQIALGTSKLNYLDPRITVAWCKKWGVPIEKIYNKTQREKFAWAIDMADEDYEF
Method: as §1

[3] = test system: TopIB-DNA complexes in L. infantum promastigotes; assay: SDS/K-DNA precipitation (in situ cleavage complex formation); assay type: cell-based, Leishmania infantum; settings: highest concentration 30 μM, 30 min, data not shown
Method: In order to measure the fragmentation of DNA induced by Top poisons, L. infantum promastigotes, previously labeled with 0.5 mCi/mL [2–^14C] thymidine for 24 h, were exposed to different concentrations of indenoisoquinolines for 30 min, followed by precipitation with SDS/KCl, according to the method described previously ([Balaña-Fouce et al., 2012]). DNA fragmentation was determined as the percentage of total labeled DNA, and was calculated as follows: [(dpm in SDS/KCl drug - dpm in SDS/KCl solvent)/(dpm total incorporation)] x 100. Each experiment was run at least in triplicate.

[4] = test system: iRFP L. infantum promastigotes; assay: Antileishmanial activity on free-living iRFP L. infantum promastigotes (infrared fluorescence viability); assay type: cell-based; settings: Leishmania infantum, 72 h, 26 °C
Method: Histone phosphorylation assays were performed in promastigotes of L. infantum BCN 150 strain, whereas the antiparasitic activity of the compounds was assessed on the transgenic strain that constitutively expresses the irfp gene encoding the infrared iRFP protein (iRFP L. infantum strain) ([Calvo-Álvarez et al., 2015]), which is derived from L. infantum BCN 150. Both strains were grown at 26 °C in M-199 medium (Gibco) supplemented with 25 mM HEPES pH 7.2, 0.1 mM adenine, 0.0005% (w/v) hemin, 2 μg/mL biopterin, 0.0001% (w/v) biotin, 10% (v/v) heat-inactivated fetal bovine serum (FBS) and an antibiotic cocktail comprising 50 U/mL penicillin and 50 μg/mL streptomycin.
The antileishmanial activity of the compounds was tested both in promastigotes and in amastigotes infecting mouse splenocytes. For this purpose, 384-well optical bottom black plates (Thermo Scientific) were seeded either with free-living iRFP L. infantum promastigotes or with splenic explants infected with iRFP L. infantum amastigotes, which were incubated at 26 °C or 37 °C, respectively. The viability of both iRFP L. infantum stages was measured by recording the fluorescence emitted by viable cells at 708 nm in an Odyssey (Li-Cor) infrared imaging system after a 72-h period of incubation with different concentrations of the compounds. Dose-response curves were obtained by plotting the infrared fluorescence emission of viable parasites vs. different concentrations of testing compounds and were fitted by nonlinear analysis using the Sigma-Plot 10.0 statistical package. The reduction of infrared emission with respect to the negative control was used to determine the 50% effective concentration to kill the parasites (EC50). Both controls and treated groups were tested with DMSO (drug vehicle) concentrations below 0.1%. All compounds and controls were assayed in triplicate.

NCCCn1c2c(c3ccccc3c1=O)C(=O)c1ccccc1-2 [Compound 2]
effect on cell cycle of promastigotes [1]: did not arrest the cell cycle | LTopIB inhibition [2]: +++ (inhibition at 1 μM) | hTopIB inhibition (human Top IB (hTopIB)): ++ (inhibition at 10 μM) | protein-DNA complexes (SDS/K-DNA precipitable) [3]: 10% | EC50 [4]: 0.34 ± 0.03 µM
